Measured values: publication PMC12251549, “Engineering a Radiohybrid PSMA Ligand with an Albumin-Binding Moiety and Pharmacokinetic Modulation via an Albumin-Binding Competitor for Radiotheranostics” (Molecules, 2025)

Key:
[1] = test system: PSMA-expressing LNCaP cells; experiment: Cellular uptake and internalization in LNCaP cells, blocking with 2-PMPA; assay type: cell-based; conditions: 2-PMPA 100 µM
Experimental: Cellular uptake experiments were performed according to a previous report with slight modifications. LNCaP cells expressing PSMA were cultured in RPMI 1640 medium containing 10% fetal bovine serum (FBS) and 1% penicillin–streptomycin on 6-well culture plates (containing 5 × 10^5 cells/well) for 24 h in a humidified atmosphere (5% CO2) incubator at 37 °C. After removing the medium and washing with phosphate-buffered saline (PBS) (−) once, a mixed solution of [^125I]5 and [^211At]6, [^125I]5 and [^67Ga]Ga-PSMA-617, and [^125I]5 and [^67Ga]5 in 1.0 mL of medium without FBS was added (3.7 kBq/each tracer/well). The final concentrations of the radioligands for [^125I]5, [^211At]6, and [^67Ga]5 were 45.5 pM, 0.2 pM, and 2.5 pM, respectively. These solutions containing radioligands were diluted in saline containing 0.05% (w/v) bovine serum albumin (BSA) to prevent adsorption to tubes or plates and further diluted with medium to 0.00125% as the final BSA concentration. After incubation for 10, 60, and 120 min, the medium from each well was removed, and the cells were washed twice with ice-cold PBS (−); the surface of the cells was washed twice with ice-cold 0.2 M glycine buffer (pH 3.0). The cells were lysed using a 1 M NaOH aqueous solution. The radioactivity of ^67Ga,^125I and ^211At in the 1 M NaOH aqueous solution was determined and defined as the internalized radioligand fraction using an auto well gamma counter (ARC-8001, Hitachi, Ltd., Tokyo, Japan) according to a previous paper. The radioactivity was determined with an auto well gamma counter and corrected for background radiation and physical decay during counting. A window from 16 to 69 keV was used for counting ^125I, and a window from 70 to 120 keV was used for counting ^211At. Correlation factors to eliminate any crossover of ^125I activity in the ^211At counts were determined by measuring the ^125I standard in each window. More than one week after the experiments, the radioactivity counts of ^125I were measured after the decay of ^211At. The protein amount in cells was quantified using a BCA Protein Assay Kit (Nacalai Tesque, Kyoto, Japan) according to the manufacturer’s protocol. All data were expressed as percent dose per milligram protein (%dose/mg protein). In blocking experiments, a selective inhibitor of the PSMA, (2S)-2-(phosphonomethyl)pentanedioic acid (2-PMPA) (final concentration 100 µM), was added to each well with tracers. After incubation for 10, 60, and 120 min, radioactivity and protein concentration were determined in the same manner as the experiment without the blocking agent.

[2] = Biodistribution after intravenous co-injection of [125I]5 and [211At]6 (Table S2); assay type: in vivo, normal mice (ddY); conditions: normal mice
Experimental: [^67Ga]Ga-PSMA-617 (37 kBq) and [^125I]5 (37 kBq) or [^125I]5 (37 kBq) and [^211At]6 (37 kBq) were intravenously co-administered into three or four normal mice at each timepoint (6 weeks male ddY mice, 28–30 g, Japan SLC, Inc., Hamamatsu, Japan). Mice were sacrificed at 10 min, 1 h, 4 h, and 24 h ([^67Ga]Ga-PSMA-617 and [^125I]5) or at 10 min, 1 h, 4 h, 12 h, and 24 h ([^125I]5 and [^211At]6) postinjection of the radiolabeled compounds. Tissues of interest were removed and weighed, and the radioactivity of ^67Ga and ^125I and ^125I and ^211At were determined with an auto well gamma counter (ARC-8001) and corrected for background radiation as described in the Cellular Uptake Experiments Section. To determine the amount and routes of the radioactivity excreted from the body for 24 h after the injection of radiolabeled compounds, mice were housed in metabolic cages (METABOLICA, SUGIYAMA-GEN Co., Ltd., Tokyo, Japan). Data are shown as the percentage of injected dose per gram of tissues (%ID/g) or %ID.

O=C([O-])CN1CCN(CC(=O)[O-])CCN(CC(=O)NC(CCCCNC(=O)CCCc2ccc([125I])cc2)C(=O)NCC2CCC(C(=O)NC(Cc3ccc4ccccc4c3)C(=O)NCCCCC(NC(=O)NC(CCC(=O)O)C(=O)O)C(=O)O)CC2)CCN(CC(=O)[O-])CC1.[Ga+3] (stereo not shown) [[^125I]5]
Effect of excess 2-PMPA on cellular uptake [1]: significantly reduced
In vivo dehalogenation (radioactivity in stomach and neck) [2]: minimal deiodination or deastatination
Biodistribution of radioactivity: Blood ([2]; i.v., 10 min after injection): 24.34 (0.27) % injected dose per gram
Biodistribution of radioactivity: Bone ([2]; i.v., 10 min after injection): 2.42 (0.54) % injected dose per gram
Biodistribution of radioactivity: Brain ([2]; i.v., 10 min after injection): 0.50 (0.04) % injected dose per gram
Biodistribution of radioactivity: Heart ([2]; i.v., 10 min after injection): 4.48 (0.24) % injected dose per gram
Biodistribution of radioactivity: Kidney ([2]; i.v., 10 min after injection): 5.27 (0.62) % injected dose per gram
Biodistribution of radioactivity: L. Intestine ([2]; i.v., 10 min after injection): 0.84 (0.07) % injected dose per gram
Biodistribution of radioactivity: Liver ([2]; i.v., 10 min after injection): 3.56 (0.01) % injected dose per gram
Biodistribution of radioactivity: Lung ([2]; i.v., 10 min after injection): 13.97 (2.31) % injected dose per gram
Biodistribution of radioactivity: Muscle ([2]; i.v., 10 min after injection): 1.01 (0.09) % injected dose per gram
Biodistribution of radioactivity: Neck ([2]; i.v., 10 min after injection): 0.06 (0.01) % injected dose
Biodistribution of radioactivity: Pancreas ([2]; i.v., 10 min after injection): 2.73 (0.25) % injected dose per gram
Biodistribution of radioactivity: S. Intestine ([2]; i.v., 10 min after injection): 1.63 (0.23) % injected dose per gram
Biodistribution of radioactivity: Spleen ([2]; i.v., 10 min after injection): 2.78 (0.58) % injected dose per gram
Biodistribution of radioactivity: Stomach ([2]; i.v., 10 min after injection): 1.12 (0.10) % injected dose
Biodistribution of radioactivity: Blood ([2]; i.v., 1 h after injection): 15.32 (1.28) % injected dose per gram
Biodistribution of radioactivity: Bone ([2]; i.v., 1 h after injection): 1.67 (0.13) % injected dose per gram
Biodistribution of radioactivity: Brain ([2]; i.v., 1 h after injection): 0.33 (0.09) % injected dose per gram
Biodistribution of radioactivity: Heart ([2]; i.v., 1 h after injection): 4.10 (0.15) % injected dose per gram
Biodistribution of radioactivity: Kidney ([2]; i.v., 1 h after injection): 4.66 (0.50) % injected dose per gram
Biodistribution of radioactivity: L. Intestine ([2]; i.v., 1 h after injection): 0.89 (0.15) % injected dose per gram
Biodistribution of radioactivity: Liver ([2]; i.v., 1 h after injection): 2.32 (0.32) % injected dose per gram
Biodistribution of radioactivity: Lung ([2]; i.v., 1 h after injection): 8.89 (2.09) % injected dose per gram
Biodistribution of radioactivity: Muscle ([2]; i.v., 1 h after injection): 1.24 (0.08) % injected dose per gram
Biodistribution of radioactivity: Neck ([2]; i.v., 1 h after injection): 0.15 (0.04) % injected dose
Biodistribution of radioactivity: Pancreas ([2]; i.v., 1 h after injection): 1.86 (0.33) % injected dose per gram
Biodistribution of radioactivity: S. Intestine ([2]; i.v., 1 h after injection): 1.62 (0.30) % injected dose per gram
Biodistribution of radioactivity: Spleen ([2]; i.v., 1 h after injection): 1.79 (0.34) % injected dose per gram
Biodistribution of radioactivity: Stomach ([2]; i.v., 1 h after injection): 1.29 (0.50) % injected dose
Biodistribution of radioactivity: Blood ([2]; i.v., 4 h after injection): 12.08 (0.95) % injected dose per gram
Biodistribution of radioactivity: Bone ([2]; i.v., 4 h after injection): 1.83 (0.61) % injected dose per gram
Biodistribution of radioactivity: Brain ([2]; i.v., 4 h after injection): 0.29 (0.04) % injected dose per gram
Biodistribution of radioactivity: Heart ([2]; i.v., 4 h after injection): 3.88 (0.13) % injected dose per gram
Biodistribution of radioactivity: Kidney ([2]; i.v., 4 h after injection): 5.20 (0.25) % injected dose per gram
Biodistribution of radioactivity: L. Intestine ([2]; i.v., 4 h after injection): 1.26 (0.30) % injected dose per gram
Biodistribution of radioactivity: Liver ([2]; i.v., 4 h after injection): 1.50 (0.16) % injected dose per gram
Biodistribution of radioactivity: Lung ([2]; i.v., 4 h after injection): 7.01 (1.68) % injected dose per gram
Biodistribution of radioactivity: Muscle ([2]; i.v., 4 h after injection): 1.20 (0.07) % injected dose per gram
Biodistribution of radioactivity: Neck ([2]; i.v., 4 h after injection): 0.27 (0.09) % injected dose
Biodistribution of radioactivity: Pancreas ([2]; i.v., 4 h after injection): 1.57 (0.21) % injected dose per gram
Biodistribution of radioactivity: S. Intestine ([2]; i.v., 4 h after injection): 1.28 (0.16) % injected dose per gram
Biodistribution of radioactivity: Spleen ([2]; i.v., 4 h after injection): 1.54 (0.22) % injected dose per gram
Biodistribution of radioactivity: Stomach ([2]; i.v., 4 h after injection): 0.94 (0.29) % injected dose
Biodistribution of radioactivity: Blood ([2]; i.v., 12 h after injection): 11.77 (1.29) % injected dose per gram
Biodistribution of radioactivity: Bone ([2]; i.v., 12 h after injection): 1.88 (0.25) % injected dose per gram
Biodistribution of radioactivity: Brain ([2]; i.v., 12 h after injection): 0.34 (0.07) % injected dose per gram
Biodistribution of radioactivity: Heart ([2]; i.v., 12 h after injection): 3.62 (0.39) % injected dose per gram
Biodistribution of radioactivity: Kidney ([2]; i.v., 12 h after injection): 6.62 (0.34) % injected dose per gram
Biodistribution of radioactivity: L. Intestine ([2]; i.v., 12 h after injection): 0.87 (0.13) % injected dose per gram
Biodistribution of radioactivity: Liver ([2]; i.v., 12 h after injection): 1.59 (0.12) % injected dose per gram
Biodistribution of radioactivity: Lung ([2]; i.v., 12 h after injection): 8.00 (1.24) % injected dose per gram
Biodistribution of radioactivity: Muscle ([2]; i.v., 12 h after injection): 1.32 (0.07) % injected dose per gram
Biodistribution of radioactivity: Neck ([2]; i.v., 12 h after injection): 0.12 (0.09) % injected dose
Biodistribution of radioactivity: Pancreas ([2]; i.v., 12 h after injection): 1.75 (0.45) % injected dose per gram
Biodistribution of radioactivity: S. Intestine ([2]; i.v., 12 h after injection): 1.08 (0.07) % injected dose per gram
Biodistribution of radioactivity: Spleen ([2]; i.v., 12 h after injection): 1.75 (0.21) % injected dose per gram
Biodistribution of radioactivity: Stomach ([2]; i.v., 12 h after injection): 0.68 (0.09) % injected dose
Biodistribution of radioactivity: Blood ([2]; i.v., 24 h after injection): 8.71 (0.20) % injected dose per gram
Biodistribution of radioactivity: Bone ([2]; i.v., 24 h after injection): 1.26 (0.12) % injected dose per gram
Biodistribution of radioactivity: Brain ([2]; i.v., 24 h after injection): 0.22 (0.02) % injected dose per gram
Biodistribution of radioactivity: Heart ([2]; i.v., 24 h after injection): 2.91 (0.21) % injected dose per gram
Biodistribution of radioactivity: Kidney ([2]; i.v., 24 h after injection): 5.06 (0.61) % injected dose per gram
Biodistribution of radioactivity: L. Intestine ([2]; i.v., 24 h after injection): 0.63 (0.09) % injected dose per gram
Biodistribution of radioactivity: Liver ([2]; i.v., 24 h after injection): 1.29 (0.05) % injected dose per gram
Biodistribution of radioactivity: Lung ([2]; i.v., 24 h after injection): 5.00 (0.75) % injected dose per gram
Biodistribution of radioactivity: Muscle ([2]; i.v., 24 h after injection): 1.08 (0.08) % injected dose per gram
Biodistribution of radioactivity: Neck ([2]; i.v., 24 h after injection): 0.17 (0.05) % injected dose
Biodistribution of radioactivity: Pancreas ([2]; i.v., 24 h after injection): 1.35 (0.12) % injected dose per gram
Biodistribution of radioactivity: S. Intestine ([2]; i.v., 24 h after injection): 0.69 (0.04) % injected dose per gram
Biodistribution of radioactivity: Spleen ([2]; i.v., 24 h after injection): 1.21 (0.27) % injected dose per gram
Biodistribution of radioactivity: Stomach ([2]; i.v., 24 h after injection): 0.55 (0.02) % injected dose
Biodistribution of radioactivity: Feces ([2]; i.v., excreted for 24 h after injection (column not printed safely), Table S2): 8.13 (1.09) % injected dose
